# Data as given in ChEMBL document CHEMBL1126299, “Synthesis and structure-activity relationships of cephalosporins with C-3' catechol-containing residues” (J Med Chem, 1992).
# Tested on: Staphylococcus aureus
# Assay: The compound was tested for minimum inhibitory concentration in Staphylococcus aureus Oxford penicillin sensitive Staphylococcus aureus
# Type: functional
row,Compound,MIC [µg/mL]
1,CC(C)(O/N=C(\C(=O)N[C@@H]1C(=O)N2C(C(=O)O)=C(CCCC(=O)c3cc(O)c(O)c(Cl)c3)CSC12)c1csc(N)n1)C(=O)O (stereo partly drawn),16

# Tested on: Pseudomonas aeruginosa
# Assay: The compound was tested for minimum inhibitory concentration in Pseudomonas aeruginosa,799/61 permeability mutant
# Type: functional
row,Compound,MIC [µg/mL]
1,CC(C)(O/N=C(\C(=O)N[C@@H]1C(=O)N2C(C(=O)O)=C(CNC(=O)c3cc(O)c4cc(O)c(O)cc4n3)CSC12)c1csc(N)n1)C(=O)O (stereo partly drawn),0.06
2,CC(C)(O/N=C(\C(=O)N[C@@H]1C(=O)N2C(C(=O)O)=C(CNS(=O)(=O)c3ccc(O)c(O)c3)CSC12)c1csc(N)n1)C(=O)O (stereo partly drawn),0.008

# Tested on: Pseudomonas aeruginosa
# Assay: The compound was tested for minimum inhibitory concentration in Pseudomonas aeruginosa,799WT parent organism
# Type: functional
row,Compound,MIC [ng/mL]
1,CC(C)(O/N=C(\C(=O)N[C@@H]1C(=O)N2C(C(=O)O)=C(CNC(=O)c3cc(O)c4cc(O)c(O)cc4n3)CSC12)c1csc(N)n1)C(=O)O (stereo partly drawn),8
2,CC(C)(O/N=C(\C(=O)N[C@@H]1C(=O)N2C(C(=O)O)=C(CNC(=O)c3cnc4cc(O)c(O)cc4n3)CSC12)c1csc(N)n1)C(=O)O (stereo partly drawn),8

# Tested on: Staphylococcus aureus
# Assay: The compound was tested for minimum inhibitory concentration in Staphylococcus aureus,147N penicillin sensitive Staphylococcus aureus
# Type: functional
row,Compound,MIC [µg/mL]
1,CC(C)(O/N=C(\C(=O)N[C@@H]1C(=O)N2C(C(=O)O)=C(CCCC(=O)c3cc(O)c(O)c(Cl)c3)CSC12)c1csc(N)n1)C(=O)O (stereo partly drawn),16

# Tested on: not listed separately
# Assay: physchem
# Description: The dissociation constant of compound was tested for beta-Lactamase stability
row,Compound,pKa
1,CC(C)(O/N=C(\C(=O)N[C@@H]1C(=O)N2C(C(=O)O)=C(CNS(=O)(=O)c3ccc(O)c(O)c3)CSC12)c1csc(N)n1)C(=O)O (stereo partly drawn),8

# Tested on: Citrobacter freundii
# Assay: microbe, parasite or virus in culture
# Description: Minimum inhibitory concentration in Citrobacter freundii, DR 382031 constitutive depressed type 1
row,Compound,MIC [µg/mL]
1,CC(C)(O/N=C(\C(=O)N[C@@H]1C(=O)N2C(C(=O)O)=C(CNC(=O)c3cnc4cc(O)c(O)cc4n3)CSC12)c1csc(N)n1)C(=O)O (stereo partly drawn),1
2,CC(C)(O/N=C(\C(=O)N[C@@H]1C(=O)N2C(C(=O)O)=C(CNS(=O)(=O)c3ccc(O)c(O)c3)CSC12)c1csc(N)n1)C(=O)O (stereo partly drawn),2
3,CC(C)(O/N=C(\C(=O)N[C@@H]1C(=O)N2C(C(=O)O)=C(CCCC(=O)c3cc(O)c(O)c(Cl)c3)CSC12)c1csc(N)n1)C(=O)O (stereo partly drawn),2

# Tested on: Citrobacter freundii
# Assay: microbe, parasite or virus in culture
# Remark: another data set of the same source
# Description: Minimum inhibitory concentration in Citrobacter freundii, I+382010 inducible type 1 lactamase producer
row,Compound,MIC [µg/mL]
1,CC(C)(O/N=C(\C(=O)N[C@@H]1C(=O)N2C(C(=O)O)=C(CNC(=O)c3cnc4cc(O)c(O)cc4n3)CSC12)c1csc(N)n1)C(=O)O (stereo partly drawn),8
2,CC(C)(O/N=C(\C(=O)N[C@@H]1C(=O)N2C(C(=O)O)=C(CNS(=O)(=O)c3ccc(O)c(O)c3)CSC12)c1csc(N)n1)C(=O)O (stereo partly drawn),0.015
3,CC(C)(O/N=C(\C(=O)N[C@@H]1C(=O)N2C(C(=O)O)=C(CCCC(=O)c3cc(O)c(O)c(Cl)c3)CSC12)c1csc(N)n1)C(=O)O (stereo partly drawn),0.008

# Tested on: Enterobacter cloacae
# Assay: microbe, parasite or virus in culture
# Description: Minimum inhibitory concentration in Enterobacter cloacae, DR 401108 constitutive depressed type 1 lactamase producer
row,Compound,MIC [µg/mL]
1,CC(C)(O/N=C(\C(=O)N[C@@H]1C(=O)N2C(C(=O)O)=C(CNC(=O)c3cc(O)c4cc(O)c(O)cc4n3)CSC12)c1csc(N)n1)C(=O)O (stereo partly drawn),4
2,CC(C)(O/N=C(\C(=O)N[C@@H]1C(=O)N2C(C(=O)O)=C(CNC(=O)c3cnc4cc(O)c(O)cc4n3)CSC12)c1csc(N)n1)C(=O)O (stereo partly drawn),8
3,CC(C)(O/N=C(\C(=O)N[C@@H]1C(=O)N2C(C(=O)O)=C(CNS(=O)(=O)c3ccc(O)c(O)c3)CSC12)c1csc(N)n1)C(=O)O (stereo partly drawn),2
4,CC(C)(O/N=C(\C(=O)N[C@@H]1C(=O)N2C(C(=O)O)=C(CCCC(=O)c3cc(O)c(O)c(Cl)c3)CSC12)c1csc(N)n1)C(=O)O (stereo partly drawn),> 32

# Tested on: Escherichia coli
# Assay: microbe, parasite or virus in culture
# Description: In vitro minimum inhibitory concentration against Escherichia coli (DC0 parent organism).
row,Compound,MIC [ng/mL]
1,CC(C)(O/N=C(\C(=O)N[C@@H]1C(=O)N2C(C(=O)O)=C(CCCC(=O)c3cc(O)c(O)c(Cl)c3)CSC12)c1csc(N)n1)C(=O)O (stereo partly drawn),8

# Tested on: Enterobacter cloacae
# Assay: microbe, parasite or virus in culture
# Remark: another data set of the same source
# Description: Minimum inhibitory concentration in Enterobacter cloacae, P99+ constitutive depressed type 1 lactamase producer
row,Compound,MIC [µg/mL]
1,CC(C)(O/N=C(\C(=O)N[C@@H]1C(=O)N2C(C(=O)O)=C(CNC(=O)c3cc(O)c4cc(O)c(O)cc4n3)CSC12)c1csc(N)n1)C(=O)O (stereo partly drawn),16
2,CC(C)(O/N=C(\C(=O)N[C@@H]1C(=O)N2C(C(=O)O)=C(CNC(=O)c3cnc4cc(O)c(O)cc4n3)CSC12)c1csc(N)n1)C(=O)O (stereo partly drawn),0.5
3,CC(C)(O/N=C(\C(=O)N[C@@H]1C(=O)N2C(C(=O)O)=C(CNS(=O)(=O)c3ccc(O)c(O)c3)CSC12)c1csc(N)n1)C(=O)O (stereo partly drawn),2
4,CC(C)(O/N=C(\C(=O)N[C@@H]1C(=O)N2C(C(=O)O)=C(CCCC(=O)c3cc(O)c(O)c(Cl)c3)CSC12)c1csc(N)n1)C(=O)O (stereo partly drawn),1

# Tested on: Enterobacter cloacae
# Assay: microbe, parasite or virus in culture
# Remark: another data set of the same source
# Description: Minimum inhibitory concentration in Enterobacter cloacae, I+401029 inducible type 1 lactamase producer
row,Compound,MIC [µg/mL]
1,CC(C)(O/N=C(\C(=O)N[C@@H]1C(=O)N2C(C(=O)O)=C(CNC(=O)c3cc(O)c4cc(O)c(O)cc4n3)CSC12)c1csc(N)n1)C(=O)O (stereo partly drawn),0.5
2,CC(C)(O/N=C(\C(=O)N[C@@H]1C(=O)N2C(C(=O)O)=C(CNC(=O)c3cnc4cc(O)c(O)cc4n3)CSC12)c1csc(N)n1)C(=O)O (stereo partly drawn),0.03
3,CC(C)(O/N=C(\C(=O)N[C@@H]1C(=O)N2C(C(=O)O)=C(CNS(=O)(=O)c3ccc(O)c(O)c3)CSC12)c1csc(N)n1)C(=O)O (stereo partly drawn),0.03
4,CC(C)(O/N=C(\C(=O)N[C@@H]1C(=O)N2C(C(=O)O)=C(CCCC(=O)c3cc(O)c(O)c(Cl)c3)CSC12)c1csc(N)n1)C(=O)O (stereo partly drawn),0.03

# Tested on: Enterobacter cloacae
# Assay: microbe, parasite or virus in culture
# Remark: another data set of the same source
# Description: Minimum inhibitory concentration in Enterobacter cloacae, P99- inducible type 1 lactamase producer
row,Compound,MIC [µg/mL]
1,CC(C)(O/N=C(\C(=O)N[C@@H]1C(=O)N2C(C(=O)O)=C(CNC(=O)c3cc(O)c4cc(O)c(O)cc4n3)CSC12)c1csc(N)n1)C(=O)O (stereo partly drawn),0.06
2,CC(C)(O/N=C(\C(=O)N[C@@H]1C(=O)N2C(C(=O)O)=C(CNC(=O)c3cnc4cc(O)c(O)cc4n3)CSC12)c1csc(N)n1)C(=O)O (stereo partly drawn),0.03
3,CC(C)(O/N=C(\C(=O)N[C@@H]1C(=O)N2C(C(=O)O)=C(CNS(=O)(=O)c3ccc(O)c(O)c3)CSC12)c1csc(N)n1)C(=O)O (stereo partly drawn),0.125
4,CC(C)(O/N=C(\C(=O)N[C@@H]1C(=O)N2C(C(=O)O)=C(CCCC(=O)c3cc(O)c(O)c(Cl)c3)CSC12)c1csc(N)n1)C(=O)O (stereo partly drawn),0.03

# Tested on: Escherichia coli
# Assay: microbe, parasite or virus in culture
# Remark: another data set of the same source
# Description: In vitro minimum inhibitory concentration against Escherichia coli (DC2 permeability mutant).
row,Compound,MIC [ng/mL]
1,CC(C)(O/N=C(\C(=O)N[C@@H]1C(=O)N2C(C(=O)O)=C(CCCC(=O)c3cc(O)c(O)c(Cl)c3)CSC12)c1csc(N)n1)C(=O)O (stereo partly drawn),8

# Tested on: Pseudomonas aeruginosa
# Assay: microbe, parasite or virus in culture
# Description: Minimum inhibitory concentration in Pseudomonas aeruginosa, 18S inducible type 1 lactamase producer
row,Compound,MIC [ng/mL]
1,CC(C)(O/N=C(\C(=O)N[C@@H]1C(=O)N2C(C(=O)O)=C(CNC(=O)c3cc(O)c4cc(O)c(O)cc4n3)CSC12)c1csc(N)n1)C(=O)O (stereo partly drawn),8
2,CC(C)(O/N=C(\C(=O)N[C@@H]1C(=O)N2C(C(=O)O)=C(CNC(=O)c3cnc4cc(O)c(O)cc4n3)CSC12)c1csc(N)n1)C(=O)O (stereo partly drawn),8
3,CC(C)(O/N=C(\C(=O)N[C@@H]1C(=O)N2C(C(=O)O)=C(CNS(=O)(=O)c3ccc(O)c(O)c3)CSC12)c1csc(N)n1)C(=O)O (stereo partly drawn),15
4,CC(C)(O/N=C(\C(=O)N[C@@H]1C(=O)N2C(C(=O)O)=C(CCCC(=O)c3cc(O)c(O)c(Cl)c3)CSC12)c1csc(N)n1)C(=O)O (stereo partly drawn),8

# Tested on: Pseudomonas aeruginosa
# Assay: microbe, parasite or virus in culture
# Remark: another data set of the same source
# Description: In vitro minimum inhibitory concentration against Pseudomonas aeruginosa (PU21).
row,Compound,MIC [µg/mL]
1,CC(C)(O/N=C(\C(=O)N[C@@H]1C(=O)N2C(C(=O)O)=C(CNC(=O)c3cc(O)c4cc(O)c(O)cc4n3)CSC12)c1csc(N)n1)C(=O)O (stereo partly drawn),2
2,CC(C)(O/N=C(\C(=O)N[C@@H]1C(=O)N2C(C(=O)O)=C(CCCC(=O)c3cc(O)c(O)c(Cl)c3)CSC12)c1csc(N)n1)C(=O)O (stereo partly drawn),0.015

# Tested on: Pseudomonas aeruginosa
# Assay: microbe, parasite or virus in culture
# Remark: another data set of the same source
# Description: Minimum inhibitory concentration in Pseudomonas aeruginosa, 18SH constitutive depressed type 1 lactamase producer
row,Compound,MIC [µg/mL]
1,CC(C)(O/N=C(\C(=O)N[C@@H]1C(=O)N2C(C(=O)O)=C(CNC(=O)c3cc(O)c4cc(O)c(O)cc4n3)CSC12)c1csc(N)n1)C(=O)O (stereo partly drawn),0.125
2,CC(C)(O/N=C(\C(=O)N[C@@H]1C(=O)N2C(C(=O)O)=C(CNC(=O)c3cnc4cc(O)c(O)cc4n3)CSC12)c1csc(N)n1)C(=O)O (stereo partly drawn),0.008
3,CC(C)(O/N=C(\C(=O)N[C@@H]1C(=O)N2C(C(=O)O)=C(CNS(=O)(=O)c3ccc(O)c(O)c3)CSC12)c1csc(N)n1)C(=O)O (stereo partly drawn),0.125
4,CC(C)(O/N=C(\C(=O)N[C@@H]1C(=O)N2C(C(=O)O)=C(CCCC(=O)c3cc(O)c(O)c(Cl)c3)CSC12)c1csc(N)n1)C(=O)O (stereo partly drawn),0.015

# Tested on: Pseudomonas aeruginosa
# Assay: microbe, parasite or virus in culture
# Remark: another data set of the same source
# Description: Minimum inhibitory concentration in Pseudomonas aeruginosa,799WT parent organism
row,Compound,MIC [ng/mL]
1,CC(C)(O/N=C(\C(=O)N[C@@H]1C(=O)N2C(C(=O)O)=C(CNS(=O)(=O)c3ccc(O)c(O)c3)CSC12)c1csc(N)n1)C(=O)O (stereo partly drawn),8
2,CC(C)(O/N=C(\C(=O)N[C@@H]1C(=O)N2C(C(=O)O)=C(CCCC(=O)c3cc(O)c(O)c(Cl)c3)CSC12)c1csc(N)n1)C(=O)O (stereo partly drawn),8

# Tested on: Providencia stuartii
# Assay: microbe, parasite or virus in culture
# Description: Minimum inhibitory concentration in Pseudomonas stuartii, DR 442049 constitutive depressed type 1 lactamase producer
row,Compound,MIC [µg/mL]
1,CC(C)(O/N=C(\C(=O)N[C@@H]1C(=O)N2C(C(=O)O)=C(CNC(=O)c3cc(O)c4cc(O)c(O)cc4n3)CSC12)c1csc(N)n1)C(=O)O (stereo partly drawn),16
2,CC(C)(O/N=C(\C(=O)N[C@@H]1C(=O)N2C(C(=O)O)=C(CNC(=O)c3cnc4cc(O)c(O)cc4n3)CSC12)c1csc(N)n1)C(=O)O (stereo partly drawn),8
3,CC(C)(O/N=C(\C(=O)N[C@@H]1C(=O)N2C(C(=O)O)=C(CNS(=O)(=O)c3ccc(O)c(O)c3)CSC12)c1csc(N)n1)C(=O)O (stereo partly drawn),8
4,CC(C)(O/N=C(\C(=O)N[C@@H]1C(=O)N2C(C(=O)O)=C(CCCC(=O)c3cc(O)c(O)c(Cl)c3)CSC12)c1csc(N)n1)C(=O)O (stereo partly drawn),1

# Tested on: Providencia stuartii
# Assay: microbe, parasite or virus in culture
# Remark: another data set of the same source
# Description: Minimum inhibitory concentration in Pseudomonas stuartii, I+442019 inducible type 1 lactamase producer
row,Compound,MIC [µg/mL]
1,CC(C)(O/N=C(\C(=O)N[C@@H]1C(=O)N2C(C(=O)O)=C(CNC(=O)c3cc(O)c4cc(O)c(O)cc4n3)CSC12)c1csc(N)n1)C(=O)O (stereo partly drawn),0.008
2,CC(C)(O/N=C(\C(=O)N[C@@H]1C(=O)N2C(C(=O)O)=C(CNC(=O)c3cnc4cc(O)c(O)cc4n3)CSC12)c1csc(N)n1)C(=O)O (stereo partly drawn),0.25
3,CC(C)(O/N=C(\C(=O)N[C@@H]1C(=O)N2C(C(=O)O)=C(CNS(=O)(=O)c3ccc(O)c(O)c3)CSC12)c1csc(N)n1)C(=O)O (stereo partly drawn),0.5
4,CC(C)(O/N=C(\C(=O)N[C@@H]1C(=O)N2C(C(=O)O)=C(CCCC(=O)c3cc(O)c(O)c(Cl)c3)CSC12)c1csc(N)n1)C(=O)O (stereo partly drawn),0.03

# Tested on: Pseudomonas aeruginosa
# Assay: microbe, parasite or virus in culture
# Remark: another data set of the same source
# Description: Minimum inhibitory concentration in Pseudomonas aeruginosa,799/61 permeability mutant
row,Compound,MIC [ng/mL]
1,CC(C)(O/N=C(\C(=O)N[C@@H]1C(=O)N2C(C(=O)O)=C(CNC(=O)c3cnc4cc(O)c(O)cc4n3)CSC12)c1csc(N)n1)C(=O)O (stereo partly drawn),8
2,CC(C)(O/N=C(\C(=O)N[C@@H]1C(=O)N2C(C(=O)O)=C(CCCC(=O)c3cc(O)c(O)c(Cl)c3)CSC12)c1csc(N)n1)C(=O)O (stereo partly drawn),8
